# Tests used:
# [1] = Sessile Contact Angle / wettability of coated PDMS; type: physicochemical
# Description: Sessile Contact Angle: 2 μL drops were placed on planar samples prepared as in the previous section. Contact angles were measured using Ramé-Hart Droplmage analysis software and hardware setup.
# [2] = Coating stability assay: coated substrates incubated overnight in PBS at 36° C.; type: physicochemical
# Description: Coating Compositions and Stability Assays. A macrocyclic compound (1 mg/mL) was dissolved in DMSO. To this solution was added to 10 mM to 1.5 M salts in aqueous buffer (pH 4-10). Various substrates were coated by dipping the substrates in the coating mixture (e.g., see FIGS. 12-16) and the stability of the coating compositions were tested by incubating the coated substrates in PBS at 36° C. overnight (e.g., see FIG. 7-16). […] For example, 1 mg/mL of the arene were dissolved in DMSO (10 volume % of the total coating solution). To this solution the buffered aqueous solution containing the salt of choice and the buffer (90% of total coating solution) was added. Then the pH was adjusted using HCl or NaOH solutions. The solution was transferred to a glass vial and the different substrates where added. The vial was sealed and placed on a rocking platform for 24 h. The substrate was rinsed with DI H2O then dried with a N2 flow. Buffers used included Na2CO3 (pH 11), bicine (ph 8-9), bis-tris (pH 6-7), tris (pH 7), sodium acetate (pH 4-5). The Buffer concentration used were between 0.1 and 2.2 M. Salt concentration used were between 0 and 1.5 M.
smiles,measurement,setting,value
Oc1cccc(O)c1O [pyrogallol],wettability of PDMS,[1],increase the wettability of PDMS
Oc1ccc(C2c3cc(c(O)cc3O)C(c3ccc(O)c(O)c3)c3cc(c(O)cc3O)C(c3ccc(O)c(O)c3)c3cc(c(O)cc3O)C(c3ccc(O)c(O)c3)c3cc2c(O)cc3O)cc1O [D-D macrocycle],optimal pH for coating stability,[2]; 0.2M MgCl2 in Bicine buffer,8.5
same,optimal salt concentration for coating stability,[2]; CaCl2 in Gly buffer,0.5 M
same,optimal salt concentration for coating stability,"[2]; MgCl2, pH 8.5, Bicine buffer",0.5 M
same,optimal pH for coating stability,"[2]; pH screen, MgCl2 salt",8.0

# From patent US10995225B2, “Macrocyclic polyphenols for universal coatings” (The Regents of the University of California, priority 2016, dated 2021)
